Measured values from patent US10457687B2, “Aminoacid derivatives, a process for their preparation and pharmaceutical compositions containing them” (LES LABORATOIRES SERVIER, priority 2015, dated 2019).

Tests used:
Mcl-1 protein = Mcl-1 protein (Homo sapiens, UniProt Q07820); experiment: Inhibition of Mcl-1 by the fluorescence polarisation technique (Method 1 or Method 2); assay type: binding; conditions: for IC50: fluorescence polarisation, Fluorescein labelled ligand, Method 1 (not underlined) or Method 2 (underlined), read-out: IC50 (μM) Mcl-1 FP
How it was run: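 Fluorescence polarisation competition of 11-point compound dilutions (5% DMSO final) against fluorescein-labelled ligand for Mcl-1. Method 1: 1 nM ligand, 5 nM protein in 10 mM HEPES, 150 mM NaCl, 0.05% Tween 20, pH 7.4; Method 2: 10 nM ligand, 10 nM protein in 20 mM Na2HPO4, 1 mM EDTA, 50 mM NaCl, pH 7.4.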

[1] = system: H929 multiple myeloma tumour line; experiment: In vitro cytotoxicity, MTT assay, 48 hours; assay type: cell-based; conditions: H929 cells, 48 hours exposure, cell viability
Procedure: The cytotoxicity studies were carried out on the H929 multiple myeloma tumour line.
The cells are distributed onto microplates and exposed to the test compounds for 48 hours.

[2] = partial inhibitors, @ 10 μM test compound

Chain of Mcl-1 protein (Q07820 whole entry): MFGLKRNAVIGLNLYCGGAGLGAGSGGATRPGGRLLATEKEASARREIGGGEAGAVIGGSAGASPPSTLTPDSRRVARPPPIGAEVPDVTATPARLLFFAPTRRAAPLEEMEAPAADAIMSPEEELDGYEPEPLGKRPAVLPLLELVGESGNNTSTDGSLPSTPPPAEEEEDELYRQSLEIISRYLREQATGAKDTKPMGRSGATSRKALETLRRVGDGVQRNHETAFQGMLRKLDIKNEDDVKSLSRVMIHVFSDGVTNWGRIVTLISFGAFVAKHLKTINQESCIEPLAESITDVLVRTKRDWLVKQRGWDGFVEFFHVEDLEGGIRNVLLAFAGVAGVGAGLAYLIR

Row | IC50 (Mcl-1 protein) [µM] | percentage fluorescence polarisation inhibition, Mcl-1 FP (Mcl-1 protein; [2]) [% @ 10 μM] | inhibition at 10 µM (Mcl-1 protein; partial inhibitors, @ 10 μM test compound, read-out: percentage fluorescence polarisation inhibition, Mcl-1 FP) [%] | Structure (SMILES) | IC50 ([1]; Homo sapiens, NCI-H929) [nM] | IC50 [1] [nM]
1 | – | 16.7 | – | Cc1c(-c2c(-c3ccsc3)sc3ncnc(N[C@H](CC4CCCCC4)C(=O)O)c23)ccc(OCCN2CCN(C)CC2)c1Cl [Example 31, N-[(5Ra)-5-{3-chloro-2-methyl-4-[2-(4-methylpiperazin-1-yl)ethoxy]phenyl}-6-(thiophen-3-yl)thieno[2,3-d]pyrimidin-4-yl]-3-cyclohexyl-D-alanine] | – | > 3750
2 | 0.006 | – | – | CC#Cc1sc2ncnc(NC(Cc3ccccc3OCc3ccnc(CCOC)n3)C(=O)O)c2c1-c1ccc(OCCN2CCN(C)CC2)c(Cl)c1C [Example 41, N-[(5Sa)-5-{3-chloro-2-methyl-4-[2-(4-methylpiperazin-1-yl)ethoxy]phenyl}-6-(prop-1-yn-1-yl)thieno[2,3-d]pyrimidin-4-yl]-2-{[2-(2-methoxyethyl)pyrimidin-4-yl]methoxy}-D-phenylalanine] | 7.38 | –
3 | 0.007 | – | – | CC#Cc1sc2ncnc(NC(Cc3ccccc3OCc3ccnc(OCC(F)(F)F)n3)C(=O)O)c2c1-c1ccc(OCCN(C)C)c(Cl)c1C [Example 48, N-[(5Sa)-5-{3-chloro-4-[2-(dimethylamino)ethoxy]-2-methylphenyl}-6-(prop-1-yn-1-yl)thieno[2,3-d]pyrimidin-4-yl]-2-{[2-(2,2,2-trifluoroethoxy)pyrimidin-4-yl]methoxy}-D-phenylalanine] | 16.1 | –
4 | 0.025 | – | – | CC#Cc1sc2ncnc(NC(Cc3ccccc3OC)C(=O)O)c2c1-c1ccc(OCCN2CCN(C)CC2)c(Cl)c1C [Example 39, N-[(5Sa)-5-{3-chloro-2-methyl-4-[2-(4-methylpiperazin-1-yl)ethoxy]phenyl}-6-(prop-1-yn-1-yl)thieno[2,3-d]pyrimidin-4-yl]-2-methoxy-D-phenylalanine] | 401 | –
5 | 0.008 | – | – | CC#Cc1sc2ncnc(NC(Cc3ccccc3OCc3ccnc(N4CCOCC4)n3)C(=O)O)c2c1-c1ccc(OCCN(C)C)c(Cl)c1C [Example 47, N-[(5Sa)-5-{3-chloro-4-[2-(dimethylamino)ethoxy]-2-methylphenyl}-6-(prop-1-yn-1-yl)thieno[2,3-d]pyrimidin-4-yl]-2-{[2-(morpholin-4-yl)pyrimidin-4-yl]methoxy}-D-phenylalanine] | 83.9 | –
6 | – | 24.78 | – | Cc1c(-c2c(-c3ccsc3)sc3ncnc(NC(Cc4ccccn4)C(=O)O)c23)ccc(OCCN2CCOCC2)c1Cl [Example 35, N-[(5Ra)-5-{3-chloro-2-methyl-4-[2-(morpholin-4-yl)ethoxy]phenyl}-6-(thiophen-3-yl)thieno[2,3-d]pyrimidin-4-yl]-3-pyridin-2-yl-D-alanine] | – | > 30000
7 | 0.055 | – | – | COc1ccccc1-c1nccc(COc2ccccc2C[C@@H](Nc2ncnc3sc(-c4ccc(F)cc4)c(-c4c(C)c(Cl)c(OCCN5CCN(C)CC5)c(Cl)c4C)c23)C(=O)O)n1 [Example 270, N-[5-{3,5-dichloro-2,6-dimethyl-4-[2-(4-methylpiperazin-1-yl)ethoxy]phenyl}-6-(4-fluorophenyl)thieno[2,3-d]pyrimidin-4-yl]-2-{[2-(2-methoxyphenyl)pyrimidin-4-yl]methoxy}-D-phenylalanine] | 522 | –
8 | 0.345 | – | – | COC(=O)c1oc(-c2sc3ncnc(NC(Cc4ccccc4OC)C(=O)O)c3c2-c2ccc(OCCN3CCN(C)CC3)c(Cl)c2C)cc1C [Example 65, N-((5Sa)-5-{3-chloro-2-methyl-4-[2-(4-methylpiperazin-1-yl)ethoxy]phenyl}-6-[5-(methoxycarbonyl)-4-methylfuran-2-yl]thieno[2,3-d]pyrimidin-4-yl)-2-methoxy-D-phenylalanine] | ≥ 2780 | –

The next lines start with the compound.

Row | Structure (SMILES) | IC50 (Mcl-1 protein) [µM] | percentage fluorescence polarisation inhibition, Mcl-1 FP (Mcl-1 protein; [2]) [% @ 10 μM] | inhibition at 10 µM (Mcl-1 protein; partial inhibitors, @ 10 μM test compound, read-out: percentage fluorescence polarisation inhibition, Mcl-1 FP) [%] | IC50 ([1]; Homo sapiens, NCI-H929) [nM] | IC50 [1] [nM]
9 | COc1ccccc1CC(Nc1ncnc2sc(-c3ccc(F)o3)c(-c3ccc(OCCN4CCN(C)CC4)c(Cl)c3C)c12)C(=O)O [Example 16, N-[(5Sa)-5-{3-chloro-2-methyl-4-[2-(4-methylpiperazin-1-yl)ethoxy]phenyl}-6-(5-fluorofuran-2-yl)thieno[2,3-d]pyrimidin-4-yl]-2-methoxy-D-phenylalanine] | 0.006 | – | – | 99.3 | –
10 | Cc1c(-c2c(-c3ccc(F)cc3)sc3ncnc(NC(Cc4ccccc4OCc4ccnn4C)C(=O)O)c23)ccc(OCCN2CCN(C)CC2)c1Cl [Example 3, N-[(5Sa)-5-{3-chloro-2-methyl-4-[2-(4-methylpiperazin-1-yl)ethoxy]phenyl}-6-(4-fluorophenyl)thieno[2,3-d]pyrimidin-4-yl]-2-[(1-methyl-1H-pyrazol-5-yl)methoxy]-D-phenylalanine] | 0.114 | – | – | 318 | –
11 | Cc1c(-c2c(-c3ccco3)sc3ncnc(NC(Cc4ccccc4OCc4ccccn4)C(=O)O)c23)ccc(OCCN2CCN(C)CC2)c1Cl [Example 12, N-[(5Sa)-5-{3-chloro-2-methyl-4-[2-(4-methylpiperazin-1-yl)ethoxy]phenyl}-6-(furan-2-yl)thieno[2,3-d]pyrimidin-4-yl]-2-(pyridin-2-ylmethoxy)-D-phenylalanine] | 0.014 | – | – | 647 | –
12 | COc1ccccc1C[C@@H](Nc1ncnc2sc(-c3ccc(F)o3)c(-c3ccc(OCCN4CCN(C)CC4)c(Cl)c3C)c12)C(=O)O [Example 15, N-[(5Ra)-5-{3-chloro-2-methyl-4-[2-(4-methylpiperazin-1-yl)ethoxy]phenyl}-6-(5-fluorofuran-2-yl)thieno[2,3-d]pyrimidin-4-yl]-2-methoxy-D-phenylalanine] | – | 40.05 | – | – | > 3750
13 | Cc1c(-c2c(-c3ccsc3)sc3ncnc(NC(Cc4ccccc4CN)C(=O)O)c23)ccc(OCCN2CCOCC2)c1Cl [Example 37, 2-(aminomethyl)-N-[(5Ra)-5-{3-chloro-2-methyl-4-[2-(morpholin-4-yl)ethoxy]phenyl}-6-(thiophen-3-yl)thieno[2,3-d]pyrimidin-4-yl]-D-phenylalanine] | – | 18.7 | – | – | > 3750
14 | Cc1c(-c2c(-c3ccco3)sc3ncnc(N[C@H](Cc4ccccc4C(N)=O)C(=O)O)c23)ccc(OCCN2CCN(C)CC2)c1Cl [Example 11, 2-carbamoyl-N-[5-{3-chloro-2-methyl-4-[2-(4-methylpiperazin-1-yl)ethoxy]phenyl}-6-(furan-2-yl)thieno[2,3-d]pyrimidin-4-yl]-D-phenylalanine] | – | – | 35.5 | > 3750 | –
15 | Cc1c(-c2c(-c3ccc(F)o3)sc3ncnc(NC(Cc4ccccc4OCc4ccnn4C)C(=O)O)c23)ccc(OCCN2CCN(C)CC2)c1Cl [Example 20, N-[(5Sa)-5-{3-chloro-2-methyl-4-[2-(4-methylpiperazin-1-yl)ethoxy]phenyl}-6-(5-fluorofuran-2-yl)thieno[2,3-d]pyrimidin-4-yl]-2-[(1-methyl-1H-pyrazol-5-yl)methoxy]-D-phenylalanine] | 0.026 | – | – | 78.6 | –
16 | Cc1c(-c2c(-c3ccc(F)o3)sc3ncnc(N[C@H](Cc4ccccc4OCc4ccnc(OCC(F)(F)F)n4)C(=O)O)c23)ccc(OCCN2CCN(C)CC2)c1Cl [Example 25, N-[(5Ra)-5-{3-chloro-2-methyl-4-[2-(4-methylpiperazin-1-yl)ethoxy]phenyl}-6-(5-fluorofuran-2-yl)thieno[2,3-d]pyrimidin-4-yl]-2-{[2-(2,2,2-trifluoroethoxy)pyrimidin-4-yl]methoxy}-D-phenylalanine] | – | 55.5 | – | – | > 600
17 | Cc1c(-c2c(-c3ccc(F)o3)sc3ncnc(NC(Cc4ccccc4O)C(=O)O)c23)ccc(OCCN(C)C)c1Cl [Example 28, N-[(5Sa)-5-{3-chloro-4-[2-(dimethylamino)ethoxy]-2-methylphenyl}-6-(5-fluorofuran-2-yl)thieno[2,3-d]pyrimidin-4-yl]-2-hydroxy-D-phenylalanine] | 0.116 | – | – | > 1880 | –
18 | Cc1c(-c2c(-c3ccsc3)sc3ncnc(NC(Cc4ccccc4CN)C(=O)O)c23)ccc(OCCN2CCOCC2)c1Cl [Example 38, 2-(aminomethyl)-N-[(5Sa)-5-{3-chloro-2-methyl-4-[2-(morpholin-4-yl)ethoxy]phenyl}-6-(thiophen-3-yl)thieno[2,3-d]pyrimidin-4-yl]-D-phenylalanine] | 1.87 | – | – | > 3750 | –
19 | CCOc1nccc(COc2ccccc2CC(Nc2ncnc3sc(-c4ccc(F)cc4)c(-c4ccc(OCCN5CCN(C)CC5)c(Cl)c4C)c23)C(=O)O)n1 [Example 4, N-[(5Sa)-5-{3-chloro-2-methyl-4-[2-(4-methylpiperazin-1-yl)ethoxy]phenyl}-6-(4-fluorophenyl)thieno[2,3-d]pyrimidin-4-yl]-2-[(2-ethoxypyrimidin-4-yl)methoxy]-D-phenylalanine] | 0.005 | – | – | 215 | –
